# Reference: ChEMBL document CHEMBL1201862, “PubChem BioAssay data set” (2004)
# Counter-ions that a name gives are not always drawn. The source made the active and inactive calls.
# What was measured:
# [1] = target: Voltage-gated inwardly rectifying potassium channel KCNH2 (Homo sapiens, UniProt Q12809); settings: Potency;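 further: confirmatory quantitative high-throughput screen measuring inhibition of hERG channel activity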
# [2] = target: T1, Replicative DNA helicase DnaB (Mycobacterium tuberculosis, UniProt P9WMR3); test: DnaB intein splicing inhibitors, dose response, biochemical, cell-free fluorescence (AID 449749); assay type: functional
# T1 sequence (P9WMR3 whole entry): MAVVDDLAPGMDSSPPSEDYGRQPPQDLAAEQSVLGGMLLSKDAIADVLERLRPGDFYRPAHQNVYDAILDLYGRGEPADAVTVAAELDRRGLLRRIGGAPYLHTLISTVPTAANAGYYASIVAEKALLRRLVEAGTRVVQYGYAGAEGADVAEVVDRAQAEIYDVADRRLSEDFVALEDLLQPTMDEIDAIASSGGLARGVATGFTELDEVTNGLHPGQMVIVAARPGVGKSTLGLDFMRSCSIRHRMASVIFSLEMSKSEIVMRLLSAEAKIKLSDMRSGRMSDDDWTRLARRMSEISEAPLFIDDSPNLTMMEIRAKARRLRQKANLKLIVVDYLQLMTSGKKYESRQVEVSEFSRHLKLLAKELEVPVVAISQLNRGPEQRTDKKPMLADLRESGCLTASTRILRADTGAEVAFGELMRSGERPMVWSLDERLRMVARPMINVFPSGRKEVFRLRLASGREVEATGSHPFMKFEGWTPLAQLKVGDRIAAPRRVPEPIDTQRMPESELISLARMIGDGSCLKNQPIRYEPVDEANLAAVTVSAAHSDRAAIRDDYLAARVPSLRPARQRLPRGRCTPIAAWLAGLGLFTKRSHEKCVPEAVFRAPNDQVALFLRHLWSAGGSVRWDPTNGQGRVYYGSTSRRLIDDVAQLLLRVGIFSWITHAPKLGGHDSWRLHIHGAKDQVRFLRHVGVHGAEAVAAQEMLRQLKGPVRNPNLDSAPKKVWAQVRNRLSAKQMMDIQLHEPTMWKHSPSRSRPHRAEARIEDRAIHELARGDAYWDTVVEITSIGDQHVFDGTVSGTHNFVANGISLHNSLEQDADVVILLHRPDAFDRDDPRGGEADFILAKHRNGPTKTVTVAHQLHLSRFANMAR
# [3] = target: T2, Tyrosyl-DNA phosphodiesterase 2 (Homo sapiens, UniProt O95551); test: potency against TDP2 phosphodiesterase activity – biochemical, epi absorbance, IC50, dose response (AID 743297)
# T2 sequence (O95551 whole entry): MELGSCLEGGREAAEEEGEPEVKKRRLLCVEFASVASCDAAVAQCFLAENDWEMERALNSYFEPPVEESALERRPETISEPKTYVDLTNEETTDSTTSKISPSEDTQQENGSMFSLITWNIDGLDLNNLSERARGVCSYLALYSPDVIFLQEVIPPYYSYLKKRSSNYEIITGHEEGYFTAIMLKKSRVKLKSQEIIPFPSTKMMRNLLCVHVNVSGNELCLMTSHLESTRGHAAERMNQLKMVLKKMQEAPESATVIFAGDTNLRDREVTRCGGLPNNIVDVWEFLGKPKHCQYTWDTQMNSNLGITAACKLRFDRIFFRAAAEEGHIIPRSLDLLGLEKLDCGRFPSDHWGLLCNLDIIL
# Cytochrome P450 3A4 = Cytochrome P450 3A4 (Homo sapiens, UniProt P08684);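 further: CYP3A4 tested as one member of a cytochrome P450 panel screen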
# Sequence of Cytochrome P450 3A4 (P08684 whole entry): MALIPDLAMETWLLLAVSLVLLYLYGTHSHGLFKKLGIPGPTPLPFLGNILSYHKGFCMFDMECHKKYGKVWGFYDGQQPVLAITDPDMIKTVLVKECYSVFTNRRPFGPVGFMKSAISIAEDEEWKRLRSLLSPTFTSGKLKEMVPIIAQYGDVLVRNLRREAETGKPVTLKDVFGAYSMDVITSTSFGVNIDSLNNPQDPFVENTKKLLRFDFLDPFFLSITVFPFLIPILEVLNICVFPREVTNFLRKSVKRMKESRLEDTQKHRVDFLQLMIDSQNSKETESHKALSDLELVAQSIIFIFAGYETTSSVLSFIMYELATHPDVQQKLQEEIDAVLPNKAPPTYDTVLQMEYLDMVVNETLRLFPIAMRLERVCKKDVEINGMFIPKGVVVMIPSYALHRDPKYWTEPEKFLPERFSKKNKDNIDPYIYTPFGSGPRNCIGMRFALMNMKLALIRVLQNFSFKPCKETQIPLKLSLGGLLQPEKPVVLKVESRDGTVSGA
# Protein RecA = target: T3, Protein RecA (Mycobacterium tuberculosis, UniProt P9WHJ3); test: Fluorescence Cell-Free Homogeneous Dose Retest to Identify Inhibitors of RecA-Intein Splicing Activity. [Related pubchem assays (depositor defined):AID2097, AID2223, AID489010, AID492950]; assay type: functional
# T3 sequence (P9WHJ3 whole entry): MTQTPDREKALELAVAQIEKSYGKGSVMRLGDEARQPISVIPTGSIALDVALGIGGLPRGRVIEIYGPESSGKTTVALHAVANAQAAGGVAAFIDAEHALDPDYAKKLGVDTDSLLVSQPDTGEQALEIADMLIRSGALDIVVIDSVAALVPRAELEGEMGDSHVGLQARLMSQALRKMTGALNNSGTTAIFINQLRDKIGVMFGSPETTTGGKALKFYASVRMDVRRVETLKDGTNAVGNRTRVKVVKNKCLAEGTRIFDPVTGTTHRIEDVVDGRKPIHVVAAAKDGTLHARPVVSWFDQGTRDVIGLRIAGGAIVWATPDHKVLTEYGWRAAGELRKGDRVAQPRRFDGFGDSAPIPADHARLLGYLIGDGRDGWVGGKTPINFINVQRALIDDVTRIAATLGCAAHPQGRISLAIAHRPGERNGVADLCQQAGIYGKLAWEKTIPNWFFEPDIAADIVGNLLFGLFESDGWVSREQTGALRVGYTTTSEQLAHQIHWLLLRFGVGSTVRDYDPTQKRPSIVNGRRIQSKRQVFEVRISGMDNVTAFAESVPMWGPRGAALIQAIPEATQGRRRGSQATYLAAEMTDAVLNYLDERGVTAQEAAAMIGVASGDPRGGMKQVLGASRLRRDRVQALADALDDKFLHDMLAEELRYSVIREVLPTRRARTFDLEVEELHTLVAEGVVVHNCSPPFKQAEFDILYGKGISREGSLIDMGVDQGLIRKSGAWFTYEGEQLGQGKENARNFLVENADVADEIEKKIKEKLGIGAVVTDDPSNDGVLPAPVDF
# Genome polyprotein = Genome polyprotein (dengue virus type 2, UniProt P29990); test: flavivirus cap methylation enzyme inhibition – biochemical, confirmation dose response, primary screen (AID 588689); assay type: functional
# Sequence of Genome polyprotein (P29990 2492-3391 limits assumed): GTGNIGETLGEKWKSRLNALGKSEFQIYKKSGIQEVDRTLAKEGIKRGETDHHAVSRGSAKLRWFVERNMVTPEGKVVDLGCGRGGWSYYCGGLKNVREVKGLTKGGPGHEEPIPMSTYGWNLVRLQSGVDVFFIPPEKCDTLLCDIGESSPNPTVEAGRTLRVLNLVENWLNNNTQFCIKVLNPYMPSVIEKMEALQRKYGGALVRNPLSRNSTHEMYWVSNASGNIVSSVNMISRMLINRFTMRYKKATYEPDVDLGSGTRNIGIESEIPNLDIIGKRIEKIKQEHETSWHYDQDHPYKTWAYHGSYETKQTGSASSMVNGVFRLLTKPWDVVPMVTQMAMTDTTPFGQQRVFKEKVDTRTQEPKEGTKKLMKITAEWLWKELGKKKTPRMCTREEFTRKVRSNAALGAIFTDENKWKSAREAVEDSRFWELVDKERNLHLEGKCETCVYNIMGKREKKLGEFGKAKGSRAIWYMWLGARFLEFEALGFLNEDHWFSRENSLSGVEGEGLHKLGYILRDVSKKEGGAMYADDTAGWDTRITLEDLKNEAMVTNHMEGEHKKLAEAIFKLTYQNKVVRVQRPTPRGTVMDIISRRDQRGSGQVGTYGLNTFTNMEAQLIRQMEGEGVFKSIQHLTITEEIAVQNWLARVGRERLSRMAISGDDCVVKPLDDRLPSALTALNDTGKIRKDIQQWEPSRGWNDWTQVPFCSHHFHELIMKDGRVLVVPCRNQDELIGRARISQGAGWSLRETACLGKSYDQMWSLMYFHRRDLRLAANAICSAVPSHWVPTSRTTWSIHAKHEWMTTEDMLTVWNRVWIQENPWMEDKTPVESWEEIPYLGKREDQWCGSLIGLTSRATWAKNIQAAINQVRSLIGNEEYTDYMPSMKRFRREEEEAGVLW
# [4] = target: T4, Heat shock factor protein 1 (Mus musculus, UniProt P38532); test: enhancement of HSF1-driven luciferase signal – cell-based, NIH3T3, luminescence, dose retest, confirmation (AID 435004); assay type: functional;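 further: stress induced by proteasome inhibitor MG132 added 30 min after compound; luciferase reporter driven by HSF1 response element in NIH3T3 cells; actives raise luminescence as potentiators of the MG132 stress response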
# T4 sequence (P38532 whole entry): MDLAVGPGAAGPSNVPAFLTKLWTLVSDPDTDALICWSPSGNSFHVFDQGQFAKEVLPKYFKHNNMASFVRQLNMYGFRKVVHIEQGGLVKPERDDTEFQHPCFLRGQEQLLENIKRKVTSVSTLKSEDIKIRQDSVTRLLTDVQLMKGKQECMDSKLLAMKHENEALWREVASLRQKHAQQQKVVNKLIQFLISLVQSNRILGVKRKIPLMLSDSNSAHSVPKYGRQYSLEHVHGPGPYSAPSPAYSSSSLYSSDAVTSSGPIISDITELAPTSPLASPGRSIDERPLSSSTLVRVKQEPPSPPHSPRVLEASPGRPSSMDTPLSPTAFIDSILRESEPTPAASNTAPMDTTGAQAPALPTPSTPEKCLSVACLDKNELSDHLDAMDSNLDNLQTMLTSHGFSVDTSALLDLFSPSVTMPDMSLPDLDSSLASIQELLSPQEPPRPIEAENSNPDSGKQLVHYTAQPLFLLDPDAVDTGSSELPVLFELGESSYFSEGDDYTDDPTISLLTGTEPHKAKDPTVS
# [5] = target: T5, Apoptotic protease-activating factor 1 (Homo sapiens, UniProt O14727); assay type: functional
# T5 sequence (O14727 whole entry): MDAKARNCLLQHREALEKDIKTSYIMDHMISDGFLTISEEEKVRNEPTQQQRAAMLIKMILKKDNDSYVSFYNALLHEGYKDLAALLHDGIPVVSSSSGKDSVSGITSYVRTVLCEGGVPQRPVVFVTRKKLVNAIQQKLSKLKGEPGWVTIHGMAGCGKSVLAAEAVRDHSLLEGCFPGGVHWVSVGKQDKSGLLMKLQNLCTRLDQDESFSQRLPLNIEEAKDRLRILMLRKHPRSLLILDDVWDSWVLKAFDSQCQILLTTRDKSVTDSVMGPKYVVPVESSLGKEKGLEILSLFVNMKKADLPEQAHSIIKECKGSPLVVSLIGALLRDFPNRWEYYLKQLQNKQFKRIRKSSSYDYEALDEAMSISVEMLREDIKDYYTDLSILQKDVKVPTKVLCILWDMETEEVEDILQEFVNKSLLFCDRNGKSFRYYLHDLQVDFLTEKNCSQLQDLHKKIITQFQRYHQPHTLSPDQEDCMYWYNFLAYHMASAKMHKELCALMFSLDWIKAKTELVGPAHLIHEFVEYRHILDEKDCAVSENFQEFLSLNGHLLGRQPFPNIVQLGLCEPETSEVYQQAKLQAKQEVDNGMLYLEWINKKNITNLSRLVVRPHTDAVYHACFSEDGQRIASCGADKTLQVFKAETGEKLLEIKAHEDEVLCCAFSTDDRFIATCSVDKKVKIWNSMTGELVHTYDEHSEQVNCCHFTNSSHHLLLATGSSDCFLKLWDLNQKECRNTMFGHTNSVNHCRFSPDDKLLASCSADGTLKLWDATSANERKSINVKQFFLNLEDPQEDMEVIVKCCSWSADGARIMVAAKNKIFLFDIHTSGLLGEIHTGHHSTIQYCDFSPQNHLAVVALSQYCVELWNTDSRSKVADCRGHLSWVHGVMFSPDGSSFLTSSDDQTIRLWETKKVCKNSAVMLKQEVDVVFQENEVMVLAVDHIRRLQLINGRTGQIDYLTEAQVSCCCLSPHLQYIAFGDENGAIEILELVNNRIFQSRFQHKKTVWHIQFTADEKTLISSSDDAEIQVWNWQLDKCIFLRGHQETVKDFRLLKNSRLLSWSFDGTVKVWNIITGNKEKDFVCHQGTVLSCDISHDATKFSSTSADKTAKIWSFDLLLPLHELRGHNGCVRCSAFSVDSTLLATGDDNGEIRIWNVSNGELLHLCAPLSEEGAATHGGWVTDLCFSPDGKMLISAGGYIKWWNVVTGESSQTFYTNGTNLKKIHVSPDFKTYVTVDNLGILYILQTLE
# BJ [6] = test: BJ-TERT fibroblast viability loss – cell-based, RAS-independent, luminescence, dose response (AID 1933); assay type: functional; settings: Homo sapiens
# BJ [7] = test: BJ-TERT-LT-ST fibroblast viability loss – cell-based, RAS-independent, luminescence, dose response (AID 1935); assay type: functional; settings: Homo sapiens;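 further: BJ fibroblasts immortalized with TERT plus LT and ST oncogenes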
# [8] = DRD fibroblast viability loss – cell-based, non-viral oncogenic, luminescence, dose response (AID 1934); assay type: functional; settings: Homo sapiens
# BJ [9] = test: cells; assay type: functional, cell-based; settings: Homo sapiens
# BJ [10] = test: growth inhibition of engineered Ras-driven BJ cells – cell-based, alamar blue fluorescence, cherrypicked samples, dose response (AID 2631); assay type: functional; settings: Homo sapiens;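 further: confirmatory dose-response assay in RAS-dependent BJ fibroblasts engineered with TERT, LT and ST, with cytotoxicity read by fluorescence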
# Sequence of Voltage-gated inwardly rectifying potassium channel KCNH2 (Q12809 whole entry): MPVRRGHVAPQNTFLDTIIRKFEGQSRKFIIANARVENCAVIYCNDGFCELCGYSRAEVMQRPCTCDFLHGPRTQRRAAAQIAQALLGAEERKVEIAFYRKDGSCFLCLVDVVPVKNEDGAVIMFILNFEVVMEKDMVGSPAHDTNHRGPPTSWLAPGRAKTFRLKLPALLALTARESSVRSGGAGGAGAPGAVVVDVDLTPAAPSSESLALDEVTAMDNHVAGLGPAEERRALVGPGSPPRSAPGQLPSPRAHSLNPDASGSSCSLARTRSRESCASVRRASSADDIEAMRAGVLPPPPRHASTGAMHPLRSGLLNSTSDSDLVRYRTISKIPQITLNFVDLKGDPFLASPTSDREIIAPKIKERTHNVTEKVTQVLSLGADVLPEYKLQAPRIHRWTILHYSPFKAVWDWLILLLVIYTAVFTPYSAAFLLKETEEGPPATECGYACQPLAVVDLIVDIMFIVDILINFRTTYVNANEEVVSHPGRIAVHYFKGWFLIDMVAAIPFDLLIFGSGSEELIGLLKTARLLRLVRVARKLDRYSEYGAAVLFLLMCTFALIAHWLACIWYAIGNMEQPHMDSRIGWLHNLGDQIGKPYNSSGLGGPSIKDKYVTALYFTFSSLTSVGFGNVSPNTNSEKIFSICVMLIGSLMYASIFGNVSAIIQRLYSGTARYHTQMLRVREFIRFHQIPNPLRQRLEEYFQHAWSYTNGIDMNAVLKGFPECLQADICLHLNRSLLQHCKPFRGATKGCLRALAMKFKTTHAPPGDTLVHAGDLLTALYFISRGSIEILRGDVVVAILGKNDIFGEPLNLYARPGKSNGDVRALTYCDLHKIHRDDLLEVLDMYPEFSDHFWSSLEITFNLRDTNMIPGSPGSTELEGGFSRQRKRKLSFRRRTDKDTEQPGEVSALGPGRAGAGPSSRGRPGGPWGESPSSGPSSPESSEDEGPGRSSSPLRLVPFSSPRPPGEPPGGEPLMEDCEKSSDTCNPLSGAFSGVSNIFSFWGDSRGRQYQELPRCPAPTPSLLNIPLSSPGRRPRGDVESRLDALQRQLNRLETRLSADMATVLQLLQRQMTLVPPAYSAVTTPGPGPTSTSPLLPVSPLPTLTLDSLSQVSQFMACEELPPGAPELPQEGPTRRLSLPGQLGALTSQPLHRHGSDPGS
smiles,measurement,setting,value
CCn1cnc2c(Nc3cccc(Cl)c3)nc(N[C@@H]3CCCC[C@@H]3N)nc21,AC50,[1],17.8 µM (inconclusive)
CCOc1cc(/C=C2/C(=O)N(c3ccccc3)N=C2C)ccc1OC(=O)c1ccco1,AC50,[2],2.68 µM (active)
same,IC50,[3],119 µM (inactive)
same,AC50,Cytochrome P450 3A4,25.1 µM (inconclusive)
same,EC50,Protein RecA,1.64 µM (active)
CCCCC1=CC2=CC(=O)C(C)(OC(=O)CC)C(=O)C2=CN1Cc1ccc(OC)cc1 (configuration not stated),IC50,Genome polyprotein,> 100 µM (active)
[H][C@]12[N@]3CC=C[C@@]1(CC)[C@@H](OC(C)=O)[C@](O)(C(=O)OC)C1N(C)c4cc(OC)c([C@@]5(C(=O)OC)CC6CN(CCc7c5[nH]c5ccccc75)CC(O)(CC)C6)cc4[C@@]12CC3 (some centres not stated),AC50,[1],35.5 µM (inconclusive)
O=C(O)C(Cc1ccccc1)N1C(=O)c2c(Cl)c(Cl)c(Cl)c(Cl)c2C1=O (configuration not stated),EC50,[4],37.1 µM (active)
same,IC50,Genome polyprotein,39.7 µM (active)
COc1ccc(CN(C)C(=O)c2cc(S(=O)(=O)NCc3ccccc3)ccc2C)c(OC)c1,IC50,[5],> 100 µM (inactive)
O=[N+]([O-])c1ccccc1N/N=C\c1ccccc1Cl,EC50,BJ [6],> 150 µM (not active)
same,EC50,BJ [7],> 150 µM (not active)
same,EC50,[8],29.8 µM (inconclusive)
same,EC50,BJ [9],103 µM (active)
same,EC50,BJ [10],> 133 µM (inactive)
C(=NC1CCCCC1)=NC1CCCCC1 [DICYCLOHEXYLCARBODIIMIDE],AC50,[1],70.8 µM (inconclusive)
COC(=O)[C@H]1[C@H]2C[C@H]3c4[nH]c5ccccc5c4CCN3C[C@H]2CC[C@@H]1O [RAUWOLSCINE HYDROCHLORIDE],AC50,[1],25.1 µM (inconclusive)
